Measurements as given in patent publication US8846746B2, “Pyrazole compound and pharmaceutical use thereof” (Japan Tobacco Inc., priority 2011, dated 2014).

What follows are compounds tested against human SGLT1 (Homo sapiens (Human), UniProt P13866) (assay: SGLT1 inhibitory activity: 14C-AMG uptake into CHO-K1 cell line stably expressing human SGLT1). Details: 14C-AMG uptake, CHO-K1 cells expressing human SGLT1.
Format: cell-based
Method: SGLT1 inhibitory activity of a test compound (IC50 value) was calculated based on an amount of intake into a cell of labeled α-methyl-D-glucopyranoside (^14C-AMG) which is transported by SGLT1.
1) Construction of Human SGLT1 Expression Plasmid
A DNA fragment containing human SGLT1, wherein NheI recognition and cleavage sequence was added upstream of a Kozac consensus sequence of the vector; and a stop codon (TAG) and a SalI recognition and cleavage sequence was added just downstream of a coding region of the human SGLT1, was amplified by PCR using pCMV6-hSGLT1 (OriGene) as a template. The purified DNA fragment was cleaved by restriction enzymes NheI and SalI, and the obtained fragment was ligated into pcDNA3.1 (+) which was cleaved by NheI and XhoI to construct human SGLT1 expression plasmid.
2) Establishment of Stable Cell Lines Expressing Human SGLT1
A human SGLT1 expression plasmid pcDNA-hSGLT1 was transfected into CHO-K1 cells by Lipofectamine-2000 (Invitrogen). The cells were cultured in the presence of G418 (Nakalai tesque) and drug-resistant cells were selected. A cell line having the highest S/B ratio of an amount of ^14C-AMG uptake per cell treated by solvent to an amount of ^14C-AMG uptake per cell treated by phlorizin (SGLT inhibitor) was selected from the drug-resistant cells as a stable cell lines expressing human SGLT1.
3) Evaluation of SGLT1 Inhibitory Activity
The stable cell line expressing human SGLT1 was seeded at 5×10^4 cells/well on BioCoat™ Poly-D-Lysine 96 well plate with Lid (Becton Dickinson and Company) and cultured at 37° C. under 5% CO2 overnight. The medium was replaced with 100 μL/well of a Na (−) buffer (140 mM choline chloride, 2 mM KCl, 1 mM MgCl2, 1 mM CaCl2, 10 mM HEPES, 5 mM Tris, pH7.4) followed by incubation for 20 minutes at 37° C. under 5% CO2. After removing the Na (−) buffer, a test compound solution which was prepared from Na (+) buffer (140 mM NaCl, 2 mM KCl, 1 mM MgCl2, 1 mM CaCl2, 10 mM HEPES, 5 mM Tris, pH7.4) containing BSA was added thereto at 40 μL/well. In addition, Na (+) buffer containing 8 kBq of ^14C-AMG and 2 mM AMG was added thereto at 40 μL/well, and was mixed well. Na (−) buffer containing BSA was added to a blank well at 40 μL/well and additionally adding a Na (+) buffer containing 8 kBq of ^14C-AMG and 2 mM AMG, and was mixed well. Cells were incubated for 1 hour at 37° C. under 5% CO2. After the reaction, the cells were washed twice with 100 μL/well of iced wash buffer (100 mM AMG, 140 mM choline chloride, 2 mM KCl, 1 mM MgCl2, 1 mM CaCl2, 10 mM HEPES, 5 mM Tris, pH7.4), then lysed in 50 μL/well of a 0.2N aqueous solution of NaOH. The cell lysate was transferred to OptiPlate96 (Perkin-Elmer) and 100 μL/well of MicroScint-40 (Perkin-Elmer) was dispensed. The radioactivity was counted by TOPCOUNT NXT (Perkin-Elmer).
A data was obtained by deducting the average value (CPM) of blank wells from the average value (CPM) of each treated well. The inhibition ratio (%) was calculated by the following formula: inhibition rate (%)=[(A−B)/A]×100, where A is a data of the solvent control, and B is a data of a test compound.

Chain of human SGLT1 (P13866 whole entry): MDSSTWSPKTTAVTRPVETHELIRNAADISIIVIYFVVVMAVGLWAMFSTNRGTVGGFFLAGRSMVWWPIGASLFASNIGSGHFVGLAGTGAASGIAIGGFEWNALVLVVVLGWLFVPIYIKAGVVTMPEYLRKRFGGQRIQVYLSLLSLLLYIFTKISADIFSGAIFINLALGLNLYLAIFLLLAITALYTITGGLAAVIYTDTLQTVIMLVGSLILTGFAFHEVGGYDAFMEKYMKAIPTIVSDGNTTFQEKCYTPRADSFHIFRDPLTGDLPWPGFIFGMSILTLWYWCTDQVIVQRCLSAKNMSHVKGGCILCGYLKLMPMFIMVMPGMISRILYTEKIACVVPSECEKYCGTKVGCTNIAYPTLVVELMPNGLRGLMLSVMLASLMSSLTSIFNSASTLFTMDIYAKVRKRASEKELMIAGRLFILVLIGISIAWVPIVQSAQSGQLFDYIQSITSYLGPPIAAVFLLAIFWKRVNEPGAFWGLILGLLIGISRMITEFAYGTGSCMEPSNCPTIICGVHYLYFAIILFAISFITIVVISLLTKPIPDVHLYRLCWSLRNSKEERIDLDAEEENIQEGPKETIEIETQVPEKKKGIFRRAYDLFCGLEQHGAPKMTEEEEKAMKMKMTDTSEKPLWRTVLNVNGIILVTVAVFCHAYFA

In order of rising IC50:
1. CCC(F)(F)c1cccc(-c2cc(NC(=O)[C@H]3CNC(=O)C3)nn2-c2ccccc2C)c1 [Example 144]  0.0013 µM
2. CC(C)(C)c1cccc(-c2cc(NC(=O)[C@H]3CNC(=O)C3)nn2-c2ccccc2)c1 [Example 25]  0.0018 µM
3. O=C1C[C@@H](C(=O)Nc2cc(-c3cccc(C(F)(F)F)c3)n(-c3ccccc3Cl)n2)CN1 [Example 205]  0.0036 µM
4. C[C@H]1C(=O)NC[C@@H]1C(=O)Nc1cc(-c2cccc(OCC(F)(F)F)c2)n(-c2cccc(F)c2)n1 [Example 222]  0.0041 µM
5. O=C1CCC(C(=O)Nc2cc(-c3cccc(OC(F)(F)F)c3)n(-c3ccccc3)n2)CN1 (single isomer, unassigned) [Example 150]  0.0077 µM
6. Cc1cc(F)ccc1-n1nc(NC(=O)[C@H]2CNC(=O)C2)cc1-c1cccc(OC(F)(F)F)c1 [Example 195]  0.0083 µM
7. CC(C)c1cccc(-c2cc(NC(=O)[C@H]3CNC(=O)C3)nn2-c2ccccc2)c1 [Example 54]  0.01 µM
8. CCCc1cccc(-c2cc(NC(=O)[C@H]3CNC(=O)C3)nn2CCC(C)C)c1 [Example 135]  0.011 µM
9. COC(C)(C)c1cccc(-c2cc(NC(=O)[C@H]3CNC(=O)C3)nn2-c2ccccc2)c1 [Example 82]  0.012 µM
10. CCC(F)(F)c1cccc(-c2cc(NC(=O)[C@@H]3CNC(=O)C3)nn2-c2ccccc2)c1 [Example 73]  0.013 µM
11. O=C1C[C@@H](C(=O)Nc2cc(-c3cccc(OC(F)(F)F)c3)n(CCC3CCCCC3)n2)CN1 [Example 128]  0.017 µM
12. CCCc1cccc(-c2cc(NC(=O)[C@@H]3CNC(=O)C3)nn2C2CCCCCC2)c1 [Example 69]  0.018 µM
13. CCC(F)(F)c1cccc(-c2cc(NC(=O)[C@H]3CNC(=O)C3)nn2C2CCOCC2)c1 [Example 155]  0.019 µM
14. CCCc1cccc(-c2cc(NC(=O)[C@@H]3CNC(=O)C3)nn2C2CCCC2)c1 [Example 65]  0.04 µM
15. CCCc1cccc(-c2cc(NC(=O)[C@H]3CNC(=O)C3)nn2CC2CCCCC2)c1 [Example 111]  0.046 µM
16. C[C@H]1C(=O)NC[C@@H]1C(=O)Nc1cc(-c2cccc(OC(F)(F)F)c2)n(CC2CCOCC2)n1 [Example 200]  0.12 µM
17. CCCc1cccc(-c2cc(NC(=O)C3CNC(=O)C3)nn2CC)c1 (racemic) [Example 24]  0.13 µM
18. CC1(C)CCCC(c2cc(NC(=O)[C@H]3CNC(=O)C3)nn2-c2ccccc2)C1 (single isomer, unassigned) [Example 89]  0.14 µM
19. CCCCCCn1nc(NC(=O)C2CNC(=O)C2)cc1-c1ccccc1 (racemic) [Example 13]  0.25 µM
20. O=C1C[C@H](C(=O)Nc2cc(C3CCCCC3)n(-c3ccccc3)n2)CN1 [Example 41]  1.9 µM

Same assay, conditions: 14C-AMG uptake, CHO-K1 cells stably expressing human SGLT1

In order of falling IC50:
1. O=C1C[C@H](C(=O)Nc2cc(-c3cccc(OC(F)(F)F)c3)n(-c3ccc(F)cc3)n2)CN1 [Example 502]  0.081 µM
2. O=C1NC[C@H](C(=O)Nc2cc(-c3cccc(OC(F)(F)F)c3)n(-c3ccccc3)n2)N1 [Example 267]  0.081 µM
3. CCCc1cccc(-c2cc(NC(=O)[C@@H]3CNC(=O)N3CCC)nn2-c2ccccc2)c1 [Example 297]  0.071 µM
4. O=C1NC[C@H](C(=O)Nc2cc(-c3cc(F)cc(COCC(F)(F)F)c3)n(-c3ccc(Cl)cc3)n2)N1 [Example 596]  0.035 µM
5. CC(C)OCc1cccc(-c2cc(NC(=O)[C@@H]3CNC(=O)C3)nn2-c2ccccc2)c1 [Example 299]  0.033 µM
6. CC(C)(OCc1cccc(-c2cc(NC(=O)[C@H]3CNC(=O)N3)nn2-c2ccc(Cl)cc2)c1)C(F)(F)F [Example 599]  0.027 µM
7. CCOc1cccc(-n2nc(NC(=O)[C@@H]3CNC(=O)C3)cc2-c2cccc(OC(F)(F)F)c2)c1F [Example 477]  0.025 µM
8. O=C1NC[C@H](C(=O)Nc2cc(-c3cccc(COC(C(F)(F)F)C(F)(F)F)c3)n(-c3ccccc3)n2)O1 [Example 366]  0.02 µM
9. CC(C)(C)COCc1cccc(-c2cc(NC(=O)C3CCC(=O)NC3)nn2-c2ccccc2)c1 (single isomer, unassigned) [Example 333]  0.02 µM
10. CC(C)COCc1cccc(-c2cc(NC(=O)[C@@H]3CNC(=O)C3)nn2-c2ccccc2)c1 [Example 314]  0.015 µM
11. COc1cccc(-n2nc(NC(=O)[C@@H]3CNC(=O)C3)cc2-c2cccc(OC(F)(F)F)c2)c1 [Example 442]  0.015 µM
12. CC(C)(OCc1cc(Cl)cc(-c2cc(NC(=O)[C@@H]3CNC(=O)C3)nn2-c2ccccc2)c1)C(F)(F)F [Example 243, (S)-5-oxopyrrolidine-3-carboxylic acid[5-[3-chloro-5-(2,2,2-trifluoro-1,1-dimethylethoxymethyl)phenyl]-1-phenyl-1H-pyrazol-3-yl]amide]  0.014 µM
13. CC(C)(OCc1cccc(-c2cc(NC(=O)[C@@H]3CNC(=O)C3)nn2-c2ccc(Cl)cc2)c1)C(F)(F)F [Example 575]  0.012 µM
14. COCc1cccc(-n2nc(NC(=O)[C@@H]3CNC(=O)C3)cc2-c2cccc(COCC(F)(F)F)c2)c1 [Example 489]  0.011 µM
15. COc1cc(F)cc(-n2nc(NC(=O)[C@@H]3CNC(=O)C3)cc2-c2cccc(COCC(F)(F)F)c2)c1 [Example 527]  0.0085 µM
16. O=C1C[C@H](C(=O)Nc2cc(-c3cc(F)cc(COCC(F)(F)F)c3)n(-c3ccccc3Cl)n2)CN1 [Example 510]  0.0083 µM
17. C[C@@H](OCc1cccc(-c2cc(NC(=O)[C@@H]3CNC(=O)C3)nn2-c2ccc(F)cc2)c1)C(F)(F)F [Example 238, (S)-5-oxopyrrolidine-3-carboxylic acid{1-(4-fluorophenyl)-5-[3-((R)-2,2,2-trifluoro-1-methylethoxymethyl)phenyl]-1H-pyrazol-3-yl}amide]  0.0079 µM
18. CCCc1cccc(-c2cc(NC(=O)[C@@H]3CNC(=O)C3)nn2-c2cccc(OCCOCc3ccccc3)c2)c1 [Example 407]  0.0076 µM
19. CCCc1cccc(-c2cc(NC(=O)[C@@H]3CNC(=O)C3)nn2-c2cccc(OCCCSC)c2)c1 [Example 490]  0.0076 µM
20. CCCc1cccc(-c2cc(NC(=O)[C@@H]3CNC(=O)C3)nn2-c2cccc(OCC3(C)COC3)c2)c1 [Example 491]  0.0065 µM
21. CCCc1cccc(-c2cc(NC(=O)[C@@H]3CNC(=O)C3)nn2-c2ccc(OCc3ccccc3)cc2)c1 [Example 370]  0.00635 µM
22. CC(C)(C)Oc1cccc(-c2cc(NC(=O)[C@@H]3CNC(=O)C3)nn2-c2ccccc2)c1 [Example 290]  0.0055 µM
23. C[C@@H](OCc1cccc(-c2cc(NC(=O)[C@@H]3CNC(=O)C3)nn2-c2cccc(Cl)c2)c1)C(F)(F)F [Example 506]  0.0047 µM
24. C[C@@H](OCc1cc(F)cc(-c2cc(NC(=O)[C@@H]3CNC(=O)C3)nn2-c2cccc(Cl)c2)c1)C(F)(F)F [Example 514]  0.004 µM
25. C[C@@H](OCc1cccc(-c2cc(NC(=O)[C@@H]3CNC(=O)C3)nn2-c2cccc(OCc3ccccc3)c2)c1)C(F)(F)F [Example 438]  0.0031 µM
26. CCCc1cccc(-c2cc(NC(=O)[C@@H]3CNC(=O)C3)nn2-c2cc(C)ccc2C)c1 [Example 324]  0.0022 µM

Same assay, conditions: CHO-K1, at 0.1 uM

In order of falling inhibition at 0.1 µM:
1. CC1C(=O)NC(O)C1C(=O)Nc1cc(-c2cccc(OC(F)(F)F)c2)n(-c2ccc(F)cc2)n1 (racemic) [Example 259]  20%
2. CC(C)N(C)C(=O)c1cccc(-c2cc(NC(=O)[C@@H]3CNC(=O)C3)nn2-c2ccccc2)c1 [Example 432]  14%
3. CCCc1cccc(-c2cc(NC(=O)C3CNC(=O)C3(C)C)nn2-c2ccccc2)c1 (stereo not drawn) [Example 398]  7%

Same assay, conditions: CHO-K1, at 0.3 uM

In order of falling inhibition at 0.3 µM:
1. CCCc1cccc(-c2cc(NC(=O)[C@@H]3CNC(=O)N3C(C)C)nn2-c2ccccc2)c1 [Example 327]  15%
2. O=C1C[C@@H](C(=O)Nc2cc(-c3cccc(OC(F)(F)F)c3)n(-c3ccc(F)cc3Cl)n2)CN1 [Example 192]  6%
